# In ChEMBL document CHEMBL4823306, “Synthesis of D-π-A type benzothiazole-pyridinium salt composite and its application as photo-degradation agent for amyloid fibrils” (Bioorg Med Chem Lett, 2021):
# Active and inactive are the calls of the source. The calls are words filed in the database; no cut-off is given here.
# Experiments:
# [1] = biological target: Amyloid-beta precursor protein (Homo sapiens) (UniProt P05067); assay: Photo-degradation of Amyloid beta (1 to 42) (unknown origin) assessed as disruption of Co2 induced aggregation at 66.7 uM irradiated with UVA-LED for 1 hr by immunoblotting analysis
# Sequence of Amyloid-beta precursor protein (Homo sapiens) (P05067 whole entry): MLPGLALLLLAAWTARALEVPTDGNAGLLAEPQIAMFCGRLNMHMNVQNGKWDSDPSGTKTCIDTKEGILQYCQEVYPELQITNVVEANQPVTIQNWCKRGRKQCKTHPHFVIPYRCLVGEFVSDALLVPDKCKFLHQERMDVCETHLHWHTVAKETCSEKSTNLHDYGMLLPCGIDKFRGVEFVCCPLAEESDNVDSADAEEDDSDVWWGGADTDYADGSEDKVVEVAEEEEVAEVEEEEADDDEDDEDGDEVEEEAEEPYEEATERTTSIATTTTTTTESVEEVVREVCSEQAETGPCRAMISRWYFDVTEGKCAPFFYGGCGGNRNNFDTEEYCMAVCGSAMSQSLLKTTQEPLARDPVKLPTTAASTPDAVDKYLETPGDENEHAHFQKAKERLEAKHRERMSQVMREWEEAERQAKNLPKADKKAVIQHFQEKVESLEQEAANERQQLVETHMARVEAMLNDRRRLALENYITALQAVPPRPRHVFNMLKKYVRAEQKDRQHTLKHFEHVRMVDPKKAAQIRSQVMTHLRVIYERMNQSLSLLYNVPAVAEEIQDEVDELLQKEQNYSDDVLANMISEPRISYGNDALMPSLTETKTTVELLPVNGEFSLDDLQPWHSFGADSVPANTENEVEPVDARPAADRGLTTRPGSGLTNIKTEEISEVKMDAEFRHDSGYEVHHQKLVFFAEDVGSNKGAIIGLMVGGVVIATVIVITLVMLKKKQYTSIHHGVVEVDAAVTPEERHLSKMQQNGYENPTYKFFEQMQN
# [2] = biological target: Amyloid-beta precursor protein (Homo sapiens) (UniProt P05067); assay: Photo-degradation of Amyloid beta (1 to 42) (unknown origin) assessed as disruption of Co2 induced aggregation at 66.7 uM irradiated with UVA-LED measured after 5 mins by immunoblotting analysis
# [3] = tested on: HeLa; assay: Dark toxicity in human HeLa cells assessed as reduction in cell viability; format: cell-based
# [4] = tested on: HeLa; assay: Phototoxicity in human HeLa cells assessed as reduction in cell viability irradiated with UVA-LED measured after 60 mins; format: cell-based; conditions: 1 h
compound,measurement,setting,value
CC[n+]1ccc(-c2ccc(-c3nc4ccccc4s3)cc2)cc1.[Br-],inhibition,[1],Active
same,inhibition,[2],Active
same,Activity,[3],Non-Toxic
same,Activity,[4],Toxic
